From patent publication US8957069B2, “Benzofuran derivatives” (Takeda Pharmaceutical Company Limited, priority 2009, dated 2015)

Tested on: rat mixed glial culture
Assay: Activity of promoting neuronal neogenesis in rat mixed glial culture
Assay type: cell-based
Conditions: compound 1 μM + rhIGF-1 100 ng/ml, three days; anti-class III beta-tubulin, absorbance at 450 nm; control (rhIGF-1 only) = 100%
Protocol: From a three-day old SD rat, hippocampus and cerebral cortex were removed. By using a kit of dispersion liquid for neuronal cells (MB-X9901, manufactured by SUMITOMO BAKELITE CO., LTD.), cell suspension was prepared and then seeded on a 96-well plate coated with collagen Type I (4860-010, manufactured by Asahi Techno Glass Co., Ltd.) to 10^5 cells/well. Under the condition of 37° C. and 5% CO2, the cells were cultured for four days in a growth medium (D-MEM/F12 with 10% FBS, comprising PS).
After culturing, the medium was exchanged with a medium for differentiation (D-MEM/F12, comprising PS), added with rhIGF-1 (R&D Systems, 291-G1-250, final concentration of 100 ng/ml) and the compound to 1 μM, followed by further culture for three days. […] By using the plate reader (Labsystems Multiskan BICHROMATIC), absorbance at 450 nm was measured.
The absorbance for the case in which no compound is added (i.e., control, rhIGF-1 only) was 100%, and the increase ratio of the absorbance for the compound addition (i.e., compound+rhIGF-1) compared to the control was obtained as % control. Activity of the each compound for promoting neuronal differentiation that is measured according to the above method is summarized in Table 9 and Table 10.

Structure (SMILES): COc1ccc(N2CCN(c3c(C)c(C)c4c(c3C)CC(C)(CO)O4)CC2)cc1 (single isomer, unassigned; (+)) [Example 144, (+)-{5-[4-(4-methoxyphenyl)piperazin-1-yl]-2,4,6,7-tetramethyl-2,3-dihydro-1-benzofuran-2-yl}methanol]
- Increase Ratio of the Absorbance (% control): >500 % control
